Measured values published in patent US4748274A, “4-hydroxy-4-(substituted alkenyl)cyclohexanecarboxylic acids” (Merrell Dow Pharmaceuticals Inc., priority 1986, dated 1988).

How the values were obtained:
[1] = biological target: T1, leukotriene D4 (longitudinal muscle of guinea pig ileum) (Cavia porcellus, UniProt Q2NNR5); assay: Antagonism of leukotriene D4 contraction, longitudinal muscle of guinea pig ileum; type: cell-based; details: LTD4 concentration-response, 15 min preincubation, 1 μM indomethacin, 37° C., Arunlakshana and Schild method; for Kb: read-out: G.P. ILEUM pA2 (LTD4) (converted)
T1 construct: The longitudinal muscle was then carefully dissected from the circular muscle of the ileum; from tissue; host or cells: guinea pig terminal ileum, longitudinal muscle segments
T1 sequence (Q2NNR5 1-340): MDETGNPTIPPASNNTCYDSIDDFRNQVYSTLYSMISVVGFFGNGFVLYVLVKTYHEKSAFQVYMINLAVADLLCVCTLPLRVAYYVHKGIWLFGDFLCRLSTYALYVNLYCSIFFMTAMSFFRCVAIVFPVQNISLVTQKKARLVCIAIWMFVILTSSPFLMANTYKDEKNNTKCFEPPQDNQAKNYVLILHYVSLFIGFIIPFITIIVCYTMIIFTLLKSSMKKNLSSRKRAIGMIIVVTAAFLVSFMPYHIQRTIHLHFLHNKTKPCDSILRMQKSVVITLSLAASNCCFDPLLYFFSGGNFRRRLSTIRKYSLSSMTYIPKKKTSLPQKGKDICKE
Experimental: Longitudinal Muscle of Guinea Pig Ileum
Male, Hartley-Duncan, guinea pigs were sacrificed by cervical dislocation. The terminal portion of the ileum was removed, rinsed, and placed in Burn's modified Tyrode's solution. The longitudinal muscle was then carefully dissected from the circular muscle of the ileum. The longitudinal muscle was cut into 1-2 cm. segments which were placed in a tissue bath containing oxygenated Burn's modified Tyrode's solution warmed to 37° C. A tension of 1.0 gram was then placed on each segment of muscle. After equilibration for 1 hour, 1 μM Indomethacin was added to each bath. After 5 minutes, each tissue segment was then exposed to a concentration of 60 nM leukotriene D4. This response was then considered to be the initial maximal contraction that each segment will produce. After washing the tissue several times, over a 1 hour period, 1 μM lndomethacin was again added to each bath. After a 5 minute period the test agent or vehicle was added to the bath. After 15 minutes, a concentration-response curve was generated using cumulatively increasing concentrations of leukotriene D4. The concentration-response was then compared to the initial maximum contraction. A test compound was considered active, if at concentrations up to 100 μM, it produces a significant shift to the right of the concentration-response relationship to leukotriene D4. The antagonist activity was quantitated in terms of a pA2 value calculated according to the method described by Arunlakshana and Schild, (Brit. J. Pharmac. Chemotherap. 14; 48, 1959).

[2] = biological target: T2, 3H-LTD4 specific receptor (guinea pig lung membranes) (Cavia porcellus, UniProt Q2NNR5); assay: 3H-LTD4 specific receptor binding in guinea pig lung membranes; details: 3H-LTD4, 50 mM Tris-HCl pH 7.6, 37° C., 20-40 min; read-out: G.P. LUNG SPECIFIC BINDING IC50
T2 construct: from tissue; host or cells: guinea pig lung membranes
T2 sequence (Q2NNR5 1-340): T1 sequence (Q2NNR5 1-340)
Experimental: 3H-LTD4 - Specific Receptor Binding in Guinea Pig Lung Membranes
Male guinea pigs were sacrificed and the lungs were removed and placed in ice cold 50 mM Tris-HCl buffer, pH 7.4. The lungs were then homogenized with a Polytron homogenizer and the homogenate was centrifuged at 1000 g for 10 minutes at 4° C. The supernatant was then centrifuged at 30,000 g for 15 minutes at 4° C. to obtain the membrane pellet. This pellet was resuspended in 50 mM Tris-HCl to provide the working suspension of lung membranes. Binding assays were then carried out in 50 mM Tris-HCl at pH 7.6 and 37° C. using incubation periods of 20-40 min. Separation of bound ^3 H-LTD4 from free ^3 H-LTD4 were performed by rapid vacuum filtration through Whatman GF/B glass fiber filters using ice cold Tris-HCl buffer and three 4 ml washes. Filtration and washing were completed in less than 8 seconds. The radioactivity on the filters was then measured. Specific binding of ^3 H-LTD4 was defined as the binding of ^3 H-LTD4 in the absence of unlabelled LTD4 minus the binding of ^3 H-LTD4 in the presence of 2×10^-7 M unlabelled LTD4. Specific binding of ^3 H-LTD4 was 60-80% of total binding. […] In these tests increasing concentrations of the agent are used to block the ^3 H-LTD4 specific binding. The concentration that reduces the specific binding of ^3 H-LTD4 by 50% is termed the IC50.

[3] = tested on: leukotriene D4 (induced bronchoconstriction); assay: In vivo leukotriene D4 antagonist activity in anesthetized guinea pigs, modified Konzett-Rossler preparation; design: species or system guinea pig; details: LTD4 50 or 100 ng/kg i.v.
Experimental: In Vivo Biological Activity
Compounds of the present invention were also tested for in vivo leukotriene D4 antagonist activity in anesthetized guinea pigs using a modified Konzett-Rossler preparation. Specifically, the guinea pigs were anesthetized with sodium pentobarbital and surgically prepared for artificial ventilation by a constant volume respirator. The inflation pressure produced by the respirator was measured for each inflation of the guinea pigs' lungs. Increases in inflation pressure above baseline are indicative of bronchoconstriction. After establishing a baseline inflation pressure, bronchoconstriction was induced by an intravenous challenge with 50 or 100 ng/kg leukotriene D4. This response was considered the initial response. After the inflation pressure returned to baseline, the guinea pig was treated with the desired dosage of test compound or vehicle, given intravenously (i.v.) or intraduodenally (i.d.), and rechallenged with leukotriene D at one minute [following i.v. administration]or 5 and 20 minutes [following i.d. administration]. This response was then compared to the initial response and the % inhibition of the response was determined. The results can be summarized as follows, with the inhibition values given for administration by the i.d. route being the greater of the two results obtained.

[4] = 1.0 mg/kg i.d., greater of results at 5 and 20 minutes

## CCCCCCCCCCCCC/C=C\C(SCCC(=O)NCC(=O)O)[C@]1(O)CC[C@H](C(=O)O)CC1 (relative stereo) [Example 10L, [1α,4β,4(Z)]-4-[1-[[3-[(carboxymethyl)amino]-3oxopropyl]thio]-2-hexadecenyl]-4-hydroxycyclohexanecarboxylic acid]
[1]
  Kb: 2.69 nM
[2]
  IC50: 8000 nM
[3]; 0.5 mg/kg i.v., rechallenge at one minute
  PERCENT INHIBITION: 74%
[3]; [4]
  PERCENT INHIBITION: 25%

## CCCCCCCCCCCCC/C=C\C(SCCCC(=O)O)[C@]1(O)CC[C@H](C(=O)O)CC1 (relative stereo) [Example 10J, [1α,4β,4(Z)]-4-[1-[(3-carboxypropyl)thio]-2-hexadecenyl]-4-hydroxycyclohexanecarboxylic acid]
[1]
  Kb: 5.5 nM
[2]
  IC50: 7100 nM
[3]; 0.5 mg/kg i.d., greater of results at 5 and 20 minutes
  PERCENT INHIBITION: 48%
[3]; [4]
  PERCENT INHIBITION: 53%

## CCCCCCCCCCCCCC=CC(SCCC(=O)O)C1(O)CCC(C(=O)O)CC1 (stereo not drawn) [Example 11, [1α,4β,4(E)]-4-[1-[(2-carboxyethyl)thio-2hexadecenyl]-4-hydroxycyclohexanecarboxylic acid]
[1]
  G.P. ILEUM pA2 (LTD4): 7.87

## CCCCCCCCCCCCC/C=C\C(SCCCC(=O)O)[C@]1(O)CC[C@@H](C(=O)O)CC1 (relative stereo) [Example 10I, [1α,4α,4(Z)]-4-[1-[(3-carboxypropyl)thio]-2-hexadecenyl]-4-hydroxycyclohexanecarboxylic acid]
[3]; 0.05 mg/kg i.v., rechallenge at one minute
  PERCENT INHIBITION: 19%

## CCCCCCCCCCCCC/C=C\C(SCCC(=O)O)[C@]1(O)CC[C@H](C(=O)O)CC1 (relative stereo) [Example 10H, [1α,4β,4(Z)]-4-[1-[(2-CarbOxyethyl)thio]-2-hexadecenyl]-4-hydroxycyclohexanecarboxylic acid]
[1]
  Kb: 0.245 nM
[2]
  IC50: 8700 nM

## CCCCCCCCCCCCC/C=C\[C@@H](SCCC(=O)O)[C@]1(O)CC[C@H](C(=O)O)CC1 [Example 10F]
[1]
  Kb: 0.38 nM
[3]; 0.0002 mg/kg i.v., rechallenge at one minute
  PERCENT INHIBITION: 38%
[3]; 0.002 mg/kg i.v., rechallenge at one minute
  PERCENT INHIBITION: 52%
[3]; 0.02 mg/kg i.v., rechallenge at one minute
  PERCENT INHIBITION: 94%
[3]; 0.1 mg/kg i.d., greater of results at 5 and 20 minutes
  PERCENT INHIBITION: 74%
[3]; 0.2 mg/kg i.d., greater of results at 5 and 20 minutes
  PERCENT INHIBITION: 93%

## CCCCCCCCCCCCC/C=C\[C@@H](SCC(=O)O)[C@]1(O)CC[C@H](C(=O)O)CC1 [Example 10D, [4(R)-[1α,4β,4(Z)]]-4-[1-[(carboxymethyl)thio]-2-hexadecenyl]-4-hydroxycyclohexanecarboxylic acid]
[1]
  Kb: 0.158 nM
